According to patent publication US5614550A, “Amide and urea derivatives having anti-hypercholesteremic activity, their preparation and their therapeutic uses” (Sankyo Company, Limited, priority 1993, dated 1997):

molecular target: T1, ACAT in M.phi. (acyl-CoA: cholesterol acyl transferase) (Mus musculus, UniProt Q61263); experiment: Inhibition of ACAT in mouse macrophages (M.phi.), cholesterol [14C]oleate formation; type: cell-based; design: dose or concentration left out as unconfirmed; settings: mouse peritoneal macrophages, beta-VLDL, 37° C., 3 hours
T1 construct: endogenous in cells; host or cells: primary adherent peritoneal macrophages from unstimulated female DDY mice
T1 sequence (Q61263 1-540): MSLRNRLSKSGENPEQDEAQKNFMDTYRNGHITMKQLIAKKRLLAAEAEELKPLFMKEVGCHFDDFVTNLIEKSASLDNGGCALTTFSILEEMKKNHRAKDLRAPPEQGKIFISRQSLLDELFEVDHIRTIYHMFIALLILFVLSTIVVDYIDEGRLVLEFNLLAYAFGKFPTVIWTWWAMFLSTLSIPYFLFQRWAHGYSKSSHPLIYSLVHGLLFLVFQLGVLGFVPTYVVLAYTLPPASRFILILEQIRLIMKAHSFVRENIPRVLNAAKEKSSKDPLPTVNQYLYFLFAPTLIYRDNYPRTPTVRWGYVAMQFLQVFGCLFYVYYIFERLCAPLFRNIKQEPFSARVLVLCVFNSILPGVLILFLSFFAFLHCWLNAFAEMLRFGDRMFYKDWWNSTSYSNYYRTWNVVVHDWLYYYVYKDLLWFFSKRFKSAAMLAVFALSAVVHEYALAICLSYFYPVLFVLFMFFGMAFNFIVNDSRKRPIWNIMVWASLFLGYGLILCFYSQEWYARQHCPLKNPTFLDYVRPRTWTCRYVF
Experimental: Blood was obtained [using the anticoagulant ethylene diamine tetraacetic acid (5 mM)] from Japanese White rabbits which had been fed a 2% w/w cholesterol diet for 2 weeks and then fasted overnight prior to removing the blood. β-VLDL (d<1.006 g/ml) was isolated by ultracentrifugation from the plasma according to the method of Hatch and Lees [Hatch, F. T. and Lees, R. S., Adv. Lipid Res., 6, 1-68 (1968)] and dialyzed against 10 mM of a sodium phosphate buffer (pH 7.4) containing 150 mM sodium chloride at 4° C.
Peritoneal cells were harvested from unstimulated female DDY mice (body weight 20-30 g) in phosphate buffer saline (PBS) as described by Edelson and Cohn [Edelson, P. J. and Cohn, Z. A., 1976, IN VITRO Methods in Cell-Mediated and Tumor Immunity, eds, Bloon, B. R. and DAvid, J. R., (Academic, New York), 333-340.]. The fluid from the mice was pooled and the cells were collected by centrifugation at 400× g, for 10 minutes at 4° C., and washed once with PBS. The cells were resuspended in Dulbecco's modified Eagle's medium (DMEM) containing 10% (vol/vol) fetal calf serum (FCS), penicillin (100 units/ml), and streptomycin (100 μg/ml) at a final concentration of 3×10^6 cells per ml. Aliquots (1 ml) of this cell suspension were dispersed onto plastic Petri dishes (35×10 mm) and then incubated in a CO2 incubator (5% CO2 /95% air) at 37° C. for 2 hours. Each dish was washed twice with PBS without serum to remove nonadherent cells. The cells were washed twice with 2 ml of PBS and used for the experiment.
Inhibition of ACAT in M.phi. was determined according to the method described by Brown et al. [Brown, M. S., Goldstein J. L., Krieger, M., Ho, Y. K. and Anderson, R. G. W. (1979) J. Cell Biol., 82, 597-613.]. Cholesterol reacylation was initiated by adding β-VLDL (final concentration 50 μg/ml cholesterol), [^14 C]oleate-albumin complex (final concentrations: 0.2 mM oleate and 0.6 mg/ml albumin) and a test compound dissolved in ethanol into the M.phi. monolayer, and the preparation was incubated at 37° C. for 3 hours in a CO2 incubator. Cells were washed three times with PBS and cellular lipid was extracted with 1 ml hexane/isopropanol (3:2, vol/vol). A lipid extract was evaporated in a stream of nitrogen. Cholesterol [^14 C]oleated was seperated by thin layer chromatography through silica gel using a 85:15:1 by volume mixture of hexane, diethyl ether and acetic acid as developing solvents. The ACAT activity in M.phi. was determined by measuring the radioactivity and an inhibition rate (%) was calculated by comparing a control activity with those of the test compound at given concentrations.

Compound | inhibition [%]
CC(C)(C)c1ccc(CCC(=O)CC2CCCCC2)cc1NC(=O)CC1c2ccccc2Oc2ccccc21 [Example 13, N-[2-t-Butyl-5-(4-cyclohexyl-3-oxobutyl)phenyl]-2-(9H-xanthen-9-yl)acetamide] | 80
CC(C)c1cccc(C(C)C)c1NC(=O)CC1c2ccccc2Oc2ccccc21 [Compound A, reference compound] | 51
CC(C)c1cccc(CCC(O)CCCC2CCCCC2)c1NC(=O)CC1c2ccccc2Oc2ccccc21 (centres unmarked) [Example 125, N-[2-Isopropyl-6-(6-cyclohexyl-3-hydroxyhexyl)phenyl]-2-(9H-xanthen-9-yl)acetamide] | 85
CC(C)(C)c1ccc(CCC(O)C2CCCCCC2)cc1NC(=O)CC1c2ccccc2Oc2ccccc21 (centres unmarked) [Example 98, N-[2-t-Butyl-5-(3-cycloheptyl-3-hydroxypropyl)phenyl]-2-(9H-xanthen-9-yl)acetamide] | 81
CC(C)(C)c1ccc(CCC(O)CCC2CCCCC2)cc1NC(=O)CC1c2ccccc2Oc2ccccc21 (centres unmarked) [Example 26, N-[2-t-Butyl-5-(5-cyclohexyl-3-hydroxypentyl)phenyl]-2-(9H-xanthen-9-yl)acetamide] | 77
CC(C)(C)c1ccc(CCC(O)CCCCC2CCCCC2)cc1NC(=O)CC1c2ccccc2Oc2ccccc21 (centres unmarked) [Example 44, N-[2-t-Butyl-5-(7-cyclohexyl-3-hydroxyheptyl)phenyl]-2-(9H-xanthen-9-yl)acetamide] | 89

Next, values leading:

inhibition [%] | Compound
74 | CC(C)(C)c1ccc(CCC(O)CCOC2CCCCC2)cc1NC(=O)CC1c2ccccc2Oc2ccccc21 (centres unmarked) [Example 217, N-[2-t-Butyl-5-(5-cyclohexyloxy-3-hydroxypentyl)phenyl]-2-(9H-xanthen-9-yl)acetamide]
86 | CC(C)(C)c1ccc(CCC(O)COCCC2CCCCC2)cc1NC(=O)CC1c2ccccc2Oc2ccccc21 (centres unmarked) [Example 219, N-{2-t-Butyl-5-[4-(2-cyclohexylethoxy)-3-hydroxybutyl]phenyl}-2-(9H-xanthen-9-yl)acetamide]
